In one assay the test system is Adjuvant Arthritis. Description: Inhibitory activity on induction of adjuvant arthritis. The assay is classed as in vivo, rat. The following applies: adjuvant (Mycobacterium butylricum) in right hind paw of female Lewis rats; oral, once daily for 21 days; swelling volume of right hind paw. The protocol: Determination of the Inhibitory Activity of the Compounds of the Present Invention on Induction of Adjuvant Arthritis
1. Preparation of Adjuvant
Heat-killed, Mycobacterium butylricum was suspended in mineral oil at a concentration of 2 mg/ml and sonicated with an ultrasonic apparatus.
2. Preparation of the Test Compound.
The test compound was suspended in 0.5% Tragacanth solution.
3. Induction of Adjuvant Arthritis
The adjuvant prepared as described in 1 was intradermally injected into the right hind paw of the female rats (usually Lewis rats were used) at a volume of 0.05 ml. Five rats per group were used. In one group of rats, adjuvant was not injected for the control group.
4. Administration of the Compound
The compound solution prepared as described in 2 was orally administered to rats from the injection day of the adjuvant, once daily for 21 days, at a dose of 5 ml/kg. Tragacanth solution (0.5%) was orally administered to one group of rats treated with adjuvant (the control group) and also to rats not treated with adjuvant.
5. Calculation Methods of Inhibitory Activity of the Compound
The volume of the right hind paw was determined with a plethymometer. The volume of the intact paw was subtracted from the individual volume, and the difference was used as the swelling volume. Then the inhibitory activity of the compound was calculated from the individual swelling volume of rats treated with the compound and that in the swelling volume of the control rats. The ID50 value of the compound was obtained from the doses treated and the average inhibitory rate of the group.

Assay [1] relates to Host Versus Graft Reaction (HvGR) in the Rat. Nature of the assay: Inhibitory activity against host versus graft reaction (HvGR) in the rat. The settings on record: Lewis rats injected with WKAH/Hkm spleen cells into hind foot pads; oral, once a day for 4 successive days; popliteal lymph node weight. The class given is in vivo. From the text:
Determination of the Inhibitory Activity Against Host Versus Graft Reaction (HvGR) in the Rat
(1) Two Strains of Rats (Lewis Rats (Male, 6 Weeks Old, Charles River Japan) and WKAH/Hkm (Male, 7 Weeks Old, SLC Japan)) Were Used. Five Rats (Host) Per Group Were Used.
The spleen cells were isolated from the spleen of the rats and 1×10^8 cells were suspended in the RPMI640 medium (LIFE TECHNOLOGIES, Rockville Md. USA). One hundred microliter (1×10^7 cells) of the spleen cell suspension whose cells were isolated from either WKAH/Hkm rats or Lewis rats were subcutaneously injected into the bilateral feet pad of the hindlimbs of the Lewis rat.
(3) Administration of the Compound
The compound was suspended in 0.5% tragacanth solution The suspended compound was orally administered to rats in the drug-treated group (Lewis rats injected with spleen cells isolated from AH/Hkm rats, and treated with the compound) at a volume of 5 ml/kg. The treatment was started on the day of the spleen cell injection, once a day, for 4 successive days. Tragacanth solution (0.5%) was orally administered, instead of the suspension of the test compound, to the rats in the same strain group (Lewis rats injected with spleen cells which were isolated from the Lewis rats) and to the rats in the control group (Lewis rats injected spleen cells isolated from WKAH/Hkm rats, and not treated with the test compound).
(4) Determination Procedures for Inhibitory Activity Against HvGR
The average weight of the popliteal lymph node of the same strain rats was subtracted from the weight of the popliteal lymph node of the individual rat (popliteal lymph gland weight due to HvGR). The inhibition rate of the popliteal lymph node weight due to HvGR of the individual rat treated with the test compound against the average weight of the control rats was calculated. The inhibitory activity of the test compound was expressed as an ID50 value (mg/kg) calculated from the dose-inhibition rate by the least square method.

For `Cc1ccc(OCC#Cc2ccc(CC[C@@](C)(N)CO)s2)cc1.O=C(O)/C=C\C(=O)O` [Example 34, (2R)-Amino-2-methyl-4-{5-[3-(4-methylphenoxy)propynyl]thiophen-2-yl}butan-1-ol Maleate], the ID50 value in the assay on Adjuvant Arthritis is 0.0470 mg/kg.

As for `COc1ccc(OCC#Cc2ccc(CC[C@@](C)(N)CO)s2)cc1OC.O=C(O)/C=C\C(=O)O` [Example 40, (2R)-Amino-2-methyl-4-{5-[3-(3,4-dimethoxphenoxy)propynyl]thiophen-2-yl}butan-1-ol Maleate], the “HvGR ID50 values” in assay [1] was 0.0683 mg/kg. In the case of `Cc1ccc(OCC#Cc2ccc(CC[C@@](C)(N)CO)s2)cc1C.O=C(O)/C=C\C(=O)O` [Example 46, (2R)-Amino-2-methyl-4-{5-[3-(3,4-dimethylphenoxy)propynyl]thiophen-2-yl}butan-1-ol Maleate], the “HvGR ID50 values” in assay [1] came out at 0.0454 mg/kg. In the case of `C[C@](N)(CO)CCc1ccc(CCCCCC2CCCCC2)s1` [Example 11, (2R)-Amino-2-methyl-4-[5-(5-Cyclohexylpent)thiophen-2-yl]butan-1-ol], the “HvGR ID50 values” in assay [1] is reported as 0.0844 mg/kg. Still for that read-out and setting: under `COc1cccc(OCC#Cc2ccc(CC[C@@](C)(N)CO)s2)c1.O=C(O)/C=C\C(=O)O` [Example 43, (2R)-Amino-2-methyl-4-{5-[3-(3-methoxylphenoxy)propynyl]thiophen-2-yl}butan-1-ol Maleate] stands 0.0730 mg/kg. Regarding `C[C@](N)(CO)CCc1ccc(C#CCCCC2CCCCC2)s1` [Example 1, (2R)-Amino-2-methyl-4-[5-(5-Cyclohexylpent-1-ynyl)thiophen-2-yl]butan-1-ol], in the assay with Adjuvant Arthritis, the ID50 value is reported as 0.0897 mg/kg. The “HvGR ID50 values” in assay [1] turned out to be 0.0843 mg/kg. Taken in the same sequence, the figures for `CCCCCCCCc1ccc(CCC(N)(CO)CO)cc1.Cl` [Reference Compound 1, reference compound] were 0.1666 mg/kg and 0.354 mg/kg.

Values taken from patent publication US6723745B2, “Amino alcohol derivatives” (Sankyo Company, Limited, priority 2000, dated 2004).
